In ChEMBL document CHEMBL1142443, “Design and synthesis of reboxetine analogs morpholine derivatives as selective norepinephrine reuptake inhibitors” (Bioorg Med Chem Lett, 2008):

Tests used:
[1] = molecular target: Sodium-dependent serotonin transporter (Homo sapiens) (UniProt P31645); assay: Binding affinity at SERT
[2] = molecular target: Sodium-dependent noradrenaline transporter (Homo sapiens) (UniProt P23975); assay: Binding affinity at NET
Sodium-dependent noradrenaline transporter (Homo sapiens), sequence (P23975 whole entry): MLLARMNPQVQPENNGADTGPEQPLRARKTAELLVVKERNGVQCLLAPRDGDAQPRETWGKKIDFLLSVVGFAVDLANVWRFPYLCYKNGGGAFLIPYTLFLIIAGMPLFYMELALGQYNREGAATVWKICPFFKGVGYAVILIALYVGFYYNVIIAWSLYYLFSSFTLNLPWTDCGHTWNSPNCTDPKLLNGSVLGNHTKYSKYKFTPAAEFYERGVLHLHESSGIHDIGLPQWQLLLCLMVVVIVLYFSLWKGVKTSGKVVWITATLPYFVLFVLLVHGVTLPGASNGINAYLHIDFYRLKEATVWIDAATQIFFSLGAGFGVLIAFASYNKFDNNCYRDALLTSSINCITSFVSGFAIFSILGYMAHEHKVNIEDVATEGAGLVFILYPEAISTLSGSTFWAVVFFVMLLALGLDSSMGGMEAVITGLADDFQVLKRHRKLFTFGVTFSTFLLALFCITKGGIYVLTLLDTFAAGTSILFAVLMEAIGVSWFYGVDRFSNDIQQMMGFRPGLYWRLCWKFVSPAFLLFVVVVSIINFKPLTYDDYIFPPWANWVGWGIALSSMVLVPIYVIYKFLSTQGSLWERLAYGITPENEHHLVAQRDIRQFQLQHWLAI

Sodium-dependent serotonin transporter (Homo sapiens), sequence (P31645 whole entry, looked up): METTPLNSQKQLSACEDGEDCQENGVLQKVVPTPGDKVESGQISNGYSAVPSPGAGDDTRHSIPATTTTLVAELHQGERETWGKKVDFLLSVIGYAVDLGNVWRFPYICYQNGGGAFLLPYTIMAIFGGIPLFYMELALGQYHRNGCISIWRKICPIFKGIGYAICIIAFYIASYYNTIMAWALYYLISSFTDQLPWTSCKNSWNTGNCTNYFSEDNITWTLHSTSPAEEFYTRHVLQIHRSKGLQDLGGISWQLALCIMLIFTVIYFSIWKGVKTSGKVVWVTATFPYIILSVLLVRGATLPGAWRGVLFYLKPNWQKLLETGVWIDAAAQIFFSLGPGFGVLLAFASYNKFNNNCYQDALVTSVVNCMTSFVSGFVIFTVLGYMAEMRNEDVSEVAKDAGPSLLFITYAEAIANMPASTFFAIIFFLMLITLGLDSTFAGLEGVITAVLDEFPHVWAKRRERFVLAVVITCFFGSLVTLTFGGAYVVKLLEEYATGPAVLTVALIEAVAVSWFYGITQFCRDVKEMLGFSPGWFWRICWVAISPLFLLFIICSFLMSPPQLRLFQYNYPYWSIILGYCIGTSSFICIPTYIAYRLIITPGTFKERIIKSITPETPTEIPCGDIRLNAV

| Compound | Activity [1] [nM] | Activity [2] [nM] |
| --- | --- | --- |
| CCOc1ccccc1O[C@@H](c1cccnc1)[C@@H]1CNCCO1 | > 10000 | 114 |
| Fc1cccc(F)c1O[C@H](C1=CCCC1)[C@@H]1CNCCO1 | 2530 | 2570 |
| CCOc1ccccc1O[C@@H](c1ccccn1)[C@@H]1CNCCO1 | 6910 | 7 |
| Fc1cccc(F)c1O[C@@H](c1nccs1)[C@@H]1CNCCO1 | > 10000 | 19 |
| Fc1cccc(OC(c2ccccc2)C2CNCCO2)c1 (stereo not drawn) | 13 | 11 |
| CCOc1ccccc1O[C@@H](c1ccc(CC)cn1)[C@@H]1CNCCO1 | 8210 | 49 |
| Fc1cccc(F)c1O[C@@H](c1ncco1)[C@@H]1CNCCO1 | > 10000 | 9 |
| Fc1cccc(F)c1O[C@@H](c1ccccc1)[C@@H]1CNCCO1 | 1210 | 7 |
| Fc1ccccc1O[C@@H](c1ccccc1)[C@@H]1CNCCO1 | 6390 | 7 |
| Fc1ccc(O[C@@H](c2ccccc2)[C@@H]2CNCCO2)c(F)c1 | 617 | 16 |
| Fc1cccc(F)c1O[C@@H](Cc1ccccc1)[C@@H]1CNCCO1 | 912 | 66 |
| Fc1ccc(O[C@@H](c2ccccc2)[C@@H]2CNCCO2)cc1 | 1620 | 21 |
| Cc1coc([C@H](Oc2c(F)cccc2F)[C@@H]2CNCCO2)n1 (stereo in doubt; form 1) | > 4500 | 18 |
| Cc1ccc(C(C)C)c(O[C@@H](c2ccccn2)[C@@H]2CNCCO2)c1 | > 8400 | 457 |
| Brc1ccccc1O[C@@H](c1ccccc1)[C@H]1CNCCO1 | 105 | 17 |
| CCOc1ccccc1O[C@@H](c1cccc(OC)n1)[C@@H]1CNCCO1 | 676 | 28 |
| Fc1cccc(F)c1O[C@@H](C1=CCCC1)[C@@H]1CNCCO1 | 3700 | 20 |

Other lines, results leading:

| Activity [1] [nM] | Activity [2] [nM] | Compound |
| --- | --- | --- |
| 8980 | 6 | Fc1cccc(F)c1O[C@@H](c1ccccn1)[C@@H]1CNCCO1 |
| 75 | 35 | c1ccc([C@H](Oc2ccccc2C2CC2)[C@H]2CNCCO2)cc1 |
| > 10000 | 6940 | Cc1coc([C@@H](Oc2c(F)cccc2F)[C@@H]2CNCCO2)n1 |
| 445 | 13 | Fc1cccc(F)c1O[C@@H](c1cccc2c1OCC2)[C@@H]1CNCCO1 |
| 3680 | 27 | CCOc1ccccc1O[C@@H](c1ncccc1C)[C@@H]1CNCCO1 |
| 2570 | 4 | CCOc1cccc(F)c1O[C@@H](c1ccccc1)[C@@H]1CNCCO1 |
| > 10000 | 1360 | CS(=O)(=O)c1ccccc1O[C@@H](c1ccccc1)[C@@H]1CNCCO1 |
| > 10000 | 19 | Cc1coc([C@H](Oc2c(F)cccc2F)[C@@H]2CNCCO2)n1 (stereo in doubt; form 2) |
| > 10000 | 18 | N#Cc1ccccc1O[C@@H](c1ccccc1)[C@@H]1CNCCO1 |
| 482 | 2 | c1ccc([C@H](Oc2ccccc2C2CC2)[C@@H]2CNCCO2)cc1 |
| 477 | 3 | Brc1ccccc1O[C@@H](c1ccccc1)[C@@H]1CNCCO1 |
| > 3500 | 2 | COc1cccc(F)c1O[C@@H](c1ccccc1)[C@@H]1CNCCO1 |
